Target: T1, LAT1 (SLC7A5) (Homo sapiens, UniProt Q01650)
T1 construct: with 4F2hc (SLC3A2)
Test: cryo-EM structure of the LAT1-4F2hc complex; IC50 from [3H]-L-leucine uptake in HT-29 cells
Type: cell-based

T1 sequence (Q01650 whole entry): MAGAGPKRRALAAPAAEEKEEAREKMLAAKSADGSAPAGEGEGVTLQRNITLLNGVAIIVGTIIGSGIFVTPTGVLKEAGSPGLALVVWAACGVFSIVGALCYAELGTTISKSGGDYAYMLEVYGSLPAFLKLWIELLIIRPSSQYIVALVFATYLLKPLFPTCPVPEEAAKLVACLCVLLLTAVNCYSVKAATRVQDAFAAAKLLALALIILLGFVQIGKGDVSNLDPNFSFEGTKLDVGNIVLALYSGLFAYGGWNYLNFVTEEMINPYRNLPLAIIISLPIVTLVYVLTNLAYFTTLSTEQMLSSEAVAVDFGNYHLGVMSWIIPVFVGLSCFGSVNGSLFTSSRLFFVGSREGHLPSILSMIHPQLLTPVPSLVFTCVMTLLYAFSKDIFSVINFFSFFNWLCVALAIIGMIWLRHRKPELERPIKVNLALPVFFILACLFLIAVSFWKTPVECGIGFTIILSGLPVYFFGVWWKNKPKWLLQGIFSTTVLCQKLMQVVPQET
T1 sequence (P08195 103-630 partner): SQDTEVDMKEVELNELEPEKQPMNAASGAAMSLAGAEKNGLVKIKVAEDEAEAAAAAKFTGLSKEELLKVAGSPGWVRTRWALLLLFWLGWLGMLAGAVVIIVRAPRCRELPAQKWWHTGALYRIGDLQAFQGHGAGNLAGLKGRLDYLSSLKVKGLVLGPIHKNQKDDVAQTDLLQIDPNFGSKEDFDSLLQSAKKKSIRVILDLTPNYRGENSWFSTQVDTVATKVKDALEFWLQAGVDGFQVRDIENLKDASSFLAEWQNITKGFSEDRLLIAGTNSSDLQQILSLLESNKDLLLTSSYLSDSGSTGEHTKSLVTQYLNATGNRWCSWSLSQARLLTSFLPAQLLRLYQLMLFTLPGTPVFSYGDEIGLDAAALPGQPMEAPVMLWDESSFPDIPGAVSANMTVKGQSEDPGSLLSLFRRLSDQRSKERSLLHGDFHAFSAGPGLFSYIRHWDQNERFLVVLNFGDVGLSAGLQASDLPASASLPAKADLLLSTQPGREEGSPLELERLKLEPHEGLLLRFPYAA

## NC1(C(=O)O)CCc2ccc(OCc3cccc4ccccc34)cc2C1 (stereo not drawn) [JX-075]
  IC50: 165 nM

## NC1(C(=O)O)CCc2ccc(OCc3ccccc3-c3ccccc3)cc2C1 (stereo not drawn) [JX-078]
  IC50: 121 nM

## NC1(C(=O)O)CCc2ccc(OCc3ccccc3-c3nc4ccccc4o3)cc2C1 (stereo not drawn) [JX-119]
  IC50: 234 nM
